Test results taken from publication PMC9377102, “Toxicity and toxicokinetics of the ethanol extract of Zuojin formula” (BMC Complementary Medicine and Therapies, 2022).
Where two headings read alike, the source gives them in different places.

Experiments:
[1] = tested on: CYP3A4, CYP1A2 and CYP2D6; conditions: cited from earlier work
[2] = tested on: thyroid hormone-induced diarrhoea; conditions: rats, 60 mg/kg oral gavage for 7 days; cited from earlier work
[3] = tested on: CD4+ Th, CD4+CXCR5+ Tfh cells and Foxp3+ Tregs; conditions: mice, intraperitoneal injection 1 mg/kg; cited from earlier work
[4] = cited from earlier work
spleen = conditions: mice, intraperitoneal injection 10 mg/kg; cited from earlier work
[5] = Toxicokinetics test in the satellite groups (UPLC-MS/MS of rat plasma); format: in vivo
Protocol: SD rats (5 ~ 6 weeks, 3/group/sex) were randomly allocated to three treatment groups and given the same dosage as those in the repeated toxicity experiment for 28 days. […] Carbamazepine was chosen as the internal standard (IS). The blood samples were centrifuged to obtain plasma. Then, 300 μL of acetonitrile containing 40 ng of IS was added to 100 μL of plasma. After vortexing for 1 min, the mixture was centrifuged at 17,000 rpm for 15 min at 4 °C. The supernatant of each sample was injected into a UPLC–MS/MS system for determination. The injection volume was 1 μL. UPLC–MS analysis was performed on a Thermo Fisher Scientific Ultimate 3000 UPLC system (San Jose, USA) and an API 4000 QTRAP mass spectrometer (Foster City, USA) equipped with an ESI source. The mobile phase consisted of 2 solvents: (A) water containing 0.1% formic acid and (B) 100% acetonitrile. For MS, multiple reaction monitoring (MRM) in positive ion mode was used as the scanning mode for the main components and IS in the plasma samples. The dwell time (DT), collision energy (CE), quadrupole 1 pre-rod bias (Q1) and quadrupole 3 pre-rod bias (Q3) are listed in Table 3.

[6] = tested on: diarrhoea-predominant irritable bowel syndrome; conditions: rats, 50 and 100 mg/kg for 14 days; cited from earlier work
[7] = tested on: CYP3A4, CYP1A2 and CYP2D6; conditions: cited from earlier work; remark: listed apart in the source
[8] = female SD rats, pure berberine 90 mg/kg orally, previous study, reference not given
[9] = male rats, pure berberine 90 mg/kg
[10] = female rats, Day 1, high dose TAZF 3.7 g/kg by gavage
[11] = female rats, Day 1, highest dose (berberine 72.08, epiberberine 7.42, coptisine 7.42, palmatine 18.26, jatrorrhizine 2.80, columbamine 5.93 mg/kg)
[12] = female rats, Day 1, low dose TAZF 0.4 g/kg by gavage
[13] = female rats, Day 1, lowest dose (berberine 8.01, epiberberine 0.82, coptisine 1.38, palmatine 2.03, jatrorrhizine 0.31, columbamine 0.66 mg/kg)
[14] = female rats, Day 1, middle dose (berberine 24.03, epiberberine 2.47, coptisine 2.47, palmatine 6.09, jatrorrhizine 0.93, columbamine 1.98 mg/kg)
[15] = female rats, Day 28, high dose TAZF 3.7 g/kg by gavage
[16] = female rats, Day 28, highest dose (berberine 72.08, epiberberine 7.42, coptisine 7.42, palmatine 18.26, jatrorrhizine 2.80, columbamine 5.93 mg/kg)
[17] = female rats, Day 28, low dose TAZF 0.4 g/kg by gavage
[18] = female rats, Day 28, lowest dose (berberine 8.01, epiberberine 0.82, coptisine 1.38, palmatine 2.03, jatrorrhizine 0.31, columbamine 0.66 mg/kg)
[19] = female rats, Day 28, middle dose (berberine 24.03, epiberberine 2.47, coptisine 2.47, palmatine 6.09, jatrorrhizine 0.93, columbamine 1.98 mg/kg)
[20] = male rats, Day 1, high dose TAZF 3.7 g/kg by gavage
[21] = male rats, Day 1, highest dose (berberine 72.08, epiberberine 7.42, coptisine 7.42, palmatine 18.26, jatrorrhizine 2.80, columbamine 5.93 mg/kg)
[22] = male rats, Day 1, low dose TAZF 0.4 g/kg by gavage
[23] = male rats, Day 1, lowest dose (berberine 8.01, epiberberine 0.82, coptisine 1.38, palmatine 2.03, jatrorrhizine 0.31, columbamine 0.66 mg/kg)
[24] = male rats, Day 1, middle dose (berberine 24.03, epiberberine 2.47, coptisine 2.47, palmatine 6.09, jatrorrhizine 0.93, columbamine 1.98 mg/kg)
[25] = male rats, Day 28, high dose TAZF 3.7 g/kg by gavage
[26] = male rats, Day 28, highest dose (berberine 72.08, epiberberine 7.42, coptisine 7.42, palmatine 18.26, jatrorrhizine 2.80, columbamine 5.93 mg/kg)
[27] = male rats, Day 28, low dose TAZF 0.4 g/kg by gavage
[28] = male rats, Day 28, lowest dose (berberine 8.01, epiberberine 0.82, coptisine 1.38, palmatine 2.03, jatrorrhizine 0.31, columbamine 0.66 mg/kg)
[29] = male rats, Day 28, middle dose (berberine 24.03, epiberberine 2.47, coptisine 2.47, palmatine 6.09, jatrorrhizine 0.93, columbamine 1.98 mg/kg)

COc1ccc2cc3[n+](cc2c1OC)CCc1cc2c(cc1-3)OCO2 [berberine]
Inhibition of CYP3A4, CYP1A2 and CYP2D6 [1]: inhibited | Effect on thyroid hormone-induced diarrhoea [2]: effect was also observed | T cell subset levels [3]: reduced levels of CD^4+ Th and CD^4+CXCR^5+ Tfh cells and an increased level of Foxp^3+ Tregs | AUC0–36 [4, 8]: 88.8 ng·h/mL | Cmax [4, 8]: 29.2 ng/mL | AUC0–60 [4, 9]: 305.8 ng·h/mL | Cmax [4, 9]: 28.2 ng/mL | Immunosuppressive effect and spleen weight (spleen): strong immunosuppressive effect and reduced spleen weight | AUC(0-t) ([5]; female, SD, rat, plasma, po, 0.4 g/kg, female rats, Day 1, low dose TAZF 0.4 g/kg by gavage, read-out: AUC0-t): 122 ± 17.1 ng·h/mL | Cmax ([5]; female, SD, rat, plasma, po, 0.4 g/kg, female rats, Day 1, low dose TAZF 0.4 g/kg by gavage, read-out: Cmax): 149 ± 73 ng/mL | AUC(0-t) ([5]; female, SD, rat, plasma, po, 0.4 g/kg, female rats, Day 28, low dose TAZF 0.4 g/kg by gavage, read-out: AUC0-t): 838 ± 949 ng·h/mL | Cmax ([5]; female, SD, rat, plasma, po, 0.4 g/kg, female rats, Day 28, low dose TAZF 0.4 g/kg by gavage, read-out: Cmax): 324 ± 432 ng/mL | AUC(0-t) ([5]; female, SD, rat, plasma, po, 3.7 g/kg, female rats, Day 1, high dose TAZF 3.7 g/kg by gavage, read-out: AUC0-t): 306 ± 94.7 ng·h/mL | Cmax ([5]; female, SD, rat, plasma, po, 3.7 g/kg, female rats, Day 1, high dose TAZF 3.7 g/kg by gavage, read-out: Cmax): 219 ± 118 ng/mL | AUC(0-t) ([5]; female, SD, rat, plasma, po, 3.7 g/kg, female rats, Day 28, high dose TAZF 3.7 g/kg by gavage, read-out: AUC0-t): 153 ± 53.7 ng·h/mL | Cmax ([5]; female, SD, rat, plasma, po, 3.7 g/kg, female rats, Day 28, high dose TAZF 3.7 g/kg by gavage, read-out: Cmax): 23.8 ± 6.25 ng/mL | AUC(0-t) ([5]; male, SD, rat, plasma, po, 0.4 g/kg, male rats, Day 1, low dose TAZF 0.4 g/kg by gavage, read-out: AUC0-t): 1220 ± 389 ng·h/mL | Cmax ([5]; male, SD, rat, plasma, po, 0.4 g/kg, male rats, Day 1, low dose TAZF 0.4 g/kg by gavage, read-out: Cmax): 222 ± 180 ng/mL | AUC(0-t) ([5]; male, SD, rat, plasma, po, 0.4 g/kg, male rats, Day 28, low dose TAZF 0.4 g/kg by gavage, read-out: AUC0-t): 699 ± 644 ng·h/mL | Cmax ([5]; male, SD, rat, plasma, po, 0.4 g/kg, male rats, Day 28, low dose TAZF 0.4 g/kg by gavage, read-out: Cmax): 460 ± 276 ng/mL | AUC(0-t) ([5]; male, SD, rat, plasma, po, 3.7 g/kg, male rats, Day 1, high dose TAZF 3.7 g/kg by gavage, read-out: AUC0-t): 1860 ± 425 ng·h/mL | Cmax ([5]; male, SD, rat, plasma, po, 3.7 g/kg, male rats, Day 1, high dose TAZF 3.7 g/kg by gavage, read-out: Cmax): 219 ± 24.4 ng/mL | AUC(0-t) ([5]; male, SD, rat, plasma, po, 3.7 g/kg, male rats, Day 28, high dose TAZF 3.7 g/kg by gavage, read-out: AUC0-t): 608 ± 203 ng·h/mL | Cmax ([5]; male, SD, rat, plasma, po, 3.7 g/kg, male rats, Day 28, high dose TAZF 3.7 g/kg by gavage, read-out: Cmax): 136 ± 77.9 ng/mL | Systemic exposure after 28 days of administration vs single administration ([5]; rats, oral TAZF): much lower | Effect on diarrhoea-predominant irritable bowel syndrome [6]: improve diarrhoea-predominant irritable bowel syndrome | Metabolism by CYP3A4, CYP1A2 and CYP2D6 [7]: metabolized

c1c2c(cc3c1OCO3)-c1cc3ccc4c(c3c[n+]1CC2)OCO4 [coptisine]
Cmax ([5]; male, SD, rat, in vivo, po, 0.4 g/kg): 45.49 ± 57.63 ng/mL | Cmax ([5]; male, SD, rat, in vivo, po, 0.4 g/kg, Cmax): 32.4 ± 33 ng/mL | Cmax ([5]; male, SD, rat, in vivo, po, 3.7 g/kg): 20.05 ± 13.57 ng/mL | Cmax ([5]; male, SD, rat, in vivo, po, 3.7 g/kg, Cmax): 32.3 ± 9.08 ng/mL | Systemic exposure after 28 days of administration vs single administration ([5]; rat, in vivo, po): much lower

COc1cc2c(cc1OC)-c1cc3ccc4c(c3c[n+]1CC2)OCO4 [epiberberine]
Inhibition of CYP3A4, CYP1A2 and CYP2D6 [1]: inhibited | 28-day AUC relative to the first day ([5]; rat, in vivo): 1 to 2 times

COc1cc2c(cc1OC)-c1cc3ccc(OC)c(OC)c3c[n+]1CC2 [palmatine]
AUC(0-t) [5, 10]: 38.00 ± 16.92 ng·h/mL | Cmax [5, 10]: 46.60 ± 27.16 ng/mL | Cmax mean [5, 11]: 46.60 ng/mL | T1/2 mean [5, 11]: 5.18 h | Tmax mean [5, 11]: 0.50 h | AUC(0-t) [5, 12]: 18.08 ± 4.07 ng·h/mL | Cmax [5, 12]: 27.93 ± 13.97 ng/mL | Cmax mean [5, 13]: 27.93 ng/mL | T1/2 mean [5, 13]: 5.96 h | Tmax mean [5, 13]: 0.42 h | AUC0-t mean [5, 14]: 90.31 ng·h/mL | Cmax mean [5, 14]: 77.60 ng/mL | T1/2 mean [5, 14]: 3.29 h | Tmax mean [5, 14]: 0.83 h | AUC(0-t) [5, 15]: 24.07 ± 12.21 ng·h/mL | Cmax [5, 15]: 5.67 ± 2.58 ng/mL | Cmax mean [5, 16]: 5.67 ng/mL | T1/2 mean [5, 16]: 3.98 h | Tmax mean [5, 16]: 0.83 h | AUC(0-t) [5, 17]: 116.47 ± 138.20 ng·h/mL | Cmax [5, 17]: 55.94 ± 72.88 ng/mL | Cmax mean [5, 18]: 55.94 ng/mL | T1/2 mean [5, 18]: 80.32 h | Tmax mean [5, 18]: 0.42 h | AUC0-t mean [5, 19]: 14.65 ng·h/mL | Cmax mean [5, 19]: 4.16 ng/mL | T1/2 mean [5, 19]: 9.33 h | Tmax mean [5, 19]: 1.33 h | AUC(0-t) [5, 20]: 342.51 ± 66.62 ng·h/mL | Cmax [5, 20]: 51.33 ± 17.52 ng/mL | Cmax mean [5, 21]: 51.33 ng/mL | T1/2 mean [5, 21]: 10.38 h | Tmax mean [5, 21]: 3.33 h | AUC(0-t) [5, 22]: 236.12 ± 103.55 ng·h/mL | Cmax [5, 22]: 52.47 ± 52.73 ng/mL | Cmax mean [5, 23]: 52.47 ng/mL | T1/2 mean [5, 23]: 12.88 h | Tmax mean [5, 23]: 3.33 h | AUC0-t mean [5, 24]: 318.68 ng·h/mL | Cmax mean [5, 24]: 71.53 ng/mL | T1/2 mean [5, 24]: 26.57 h | Tmax mean [5, 24]: 0.67 h | AUC(0-t) [5, 25]: 110.18 ± 34.30 ng·h/mL | Cmax [5, 25]: 32.93 ± 24.17 ng/mL | Cmax mean [5, 26]: 32.93 ng/mL | T1/2 mean [5, 26]: 11.01 h | Tmax mean [5, 26]: 4.08 h | AUC(0-t) [5, 27]: 36.98 ± 18.55 ng·h/mL | Cmax [5, 27]: 67.20 ± 74.82 ng/mL | Cmax mean [5, 28]: 67.20 ng/mL | T1/2 mean [5, 28]: 12.22 h | Tmax mean [5, 28]: 0.83 h | AUC0-t mean [5, 29]: 102.21 ng·h/mL | Cmax mean [5, 29]: 22.63 ng/mL | T1/2 mean [5, 29]: 2.90 h | Tmax mean [5, 29]: 12.00 h | Systemic exposure after 28 days of administration vs single administration ([5]; rats, oral TAZF): much lower | Metabolism by CYP3A4, CYP1A2 and CYP2D6 [7]: metabolized

O=c1c2ccccc2nc2n1CCc1c-2[nH]c2ccccc12 [rutaecarpine]
Level in plasma ([5]; both, SD, rat, in vivo, po): < 0.5 ng/mL
